Results published in ChEMBL document CHEMBL1154302, “Cytotoxic acacic acid glycosides from the roots of Albizia coriaria” (J Nat Prod, 2009).

Legend:
HCT-116 = assay: Cytotoxicity against human HCT116 cells after 1 hr by MTT assay; assay type: functional, cell-based; conditions: HCT-116, 1 h
HT-29 = assay: Cytotoxicity against human HT-29 cells after 1 hr by MTT assay; assay type: functional, cell-based; conditions: HT-29, 1 h

C=C[C@](C)(CC/C=C(\C)C(=O)O[C@H]1[C@H](O)[C@@H](O)[C@H](O[C@](C)(C=C)CC/C=C(\C)C(=O)O[C@H]2[C@H](O)[C@@H](O)[C@H](O[C@](C)(C=C)CC/C=C(/C)C(=O)O[C@H]3C[C@]4(C(=O)O[C@@H]5O[C@H](CO)[C@@H](O)[C@H](O)[C@H]5O[C@@H]5O[C@@H](C)[C@H](O[C@@H]6O[C@@H](CO)[C@H](O)[C@H]6O)[C@@H](O[C@@H]6O[C@H](CO)[C@@H](O)[C@H](O)[C@H]6O)[C@H]5O)[C@H](O)C[C@]5(C)C(=CC[C@@H]6[C@@]7(C)CC[C@H](O[C@@H]8O[C@H](CO[C@@H]9O[C@H](C)[C@H](O)[C@H](O)[C@H]9O)[C@@H](O)[C@H](O)[C@H]8O[C@@H]8O[C@H](CO)[C@@H](O)[C@H](O)[C@H]8O)C(C)(C)C7CC[C@]65C)[C@@H]4CC3(C)C)O[C@@H]2C)O[C@@H]1C)O[C@@H]1O[C@H](C)[C@@H](O)[C@H](O)[C@H]1O (some centres undefined) [CORIARIOSIDE A] was tested, and the IC50 (HCT-116) was 4200 nM and the IC50 (HT-29) was 6700 nM.

Work on CC(=O)O[C@H]1C(=O)[C@@]2(C)[C@H]([C@H](OC(=O)c3ccccc3)[C@]3(O)C[C@H](OC(=O)[C@H](O)[C@@H](NC(=O)c4ccccc4)c4ccccc4)C(C)=C1C3(C)C)[C@]1(OC(C)=O)CO[C@@H]1C[C@@H]2O [PACLITAXEL] yielded an IC50 (HCT-116) of 3.5 nM and an IC50 (HT-29) of 3.4 nM.
